The supplement of paper PMC11061612

Assays:
[1] = system: SF539 (Glioblastoma); assay: Bliss excess, mean over the matrix (fraction); higher = more synergy
Outline: (§1)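 After 24 hours at 37°C and 5% CO2 in 1536-well plates, cells in DMEM/F12 or RPMI plus 10% FBS received two-drug dose matrices for 72 hours. Viability came from CellTiter-Glo 2.0 luminescence and was scaled as inhibition, anchored at 0 by vehicle wells and at 1 by blank wells. Combination Emax is taken as the second-highest inhibition in the matrix, and Bliss excess as the observed combination effect less EA + EB − EA·EB, with EA and EB the single-agent effects.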

[2] = system: PSN1 (Pancreatic Carcinoma); assay: as above
Outline: as §1

[3] = system: IST-MES1 (Mesothelioma); assay: as above
Outline: as §1

[4] = system: REH (B-Lymphoblastic Leukemia); assay: as above
Outline: as §1

[5] = system: OVMIU (Ovarian Carcinoma); assay: combination Emax (second highest fraction inhibited in the dose matrix, 72 h); higher = more inhibition; extreme values may be limits of the assay
Outline: as §1

[6] = system: SK-PN-DW (Other Solid Carcinomas); assay: as above
Outline: as §1

[7] = system: PANC-03-27 (Pancreatic Carcinoma); assay: as above
Outline: as §1

[8] = system: TE-8 (Esophageal Squamous Cell Carcinoma); assay: as above
Outline: as §1

[9] = system: LK-2 (Squamous Cell Lung Carcinoma); assay: as above
Outline: as §1

[10] = system: COLO-680N (Esophageal Squamous Cell Carcinoma); assay: as above
Outline: as §1

[11] = system: MKN45 (Gastric Carcinoma); assay: as above
Outline: as §1

[12] = system: MFE-280 (Endometrial Carcinoma); assay: as above
Outline: as §1

[13] = system: L-1236 (Hodgkin's Lymphoma); assay: as above
Outline: as §1

[14] = system: CAL-62 (Thyroid Gland Carcinoma); assay: as above
Outline: as §1

[15] = system: RCM-1 (Colorectal Carcinoma); assay: as above
Outline: as §1

[16] = system: SHP-77 (Small Cell Lung Carcinoma); assay: as above
Outline: as §1

[17] = system: SF539 (Glioblastoma); assay: as above
Outline: as §1

[18] = system: PSN1 (Pancreatic Carcinoma); assay: as above
Outline: as §1

[19] = system: IST-MES1 (Mesothelioma); assay: as above
Outline: as §1

[20] = system: RKN (Other Solid Carcinomas); assay: as above
Outline: as §1
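Wherever Bliss excess, mean over the matrix is given: after 72 h of two-drug dosing.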

SMILES	Bliss excess [1]	Bliss excess [2]	Bliss excess [3]	Bliss excess [4]	combination Emax [5]	combination Emax [6]	combination Emax [7]	combination Emax [8]	combination Emax [9]	combination Emax [10]	combination Emax [11]	combination Emax [12]	combination Emax [13]	combination Emax [14]	combination Emax [15]	combination Emax [16]	combination Emax [17]	combination Emax [18]	combination Emax [19]	combination Emax [20]
C[C@@H](Nc1cc(F)cc(F)c1)c1cc(C(=O)N(C)C)cc2c(=O)cc(N3CCOCC3)oc12 [AZD8186] + CC(=O)c1c(C)c2cnc(Nc3ccc(N4CCNCC4)cn3)nc2n(C2CCCC2)c1=O [Palbociclib] (first compound max 10 µM, 7x7, partner max 10 µM)	0.0583	0.0298	0.0167	0.0638	0.497	0.644	0.513	0.502	0.237	0.419	0.534	0.518	0.697	0.36	0.335	0.337	0.412	0.558	0.454	0.292
C[C@@H](Oc1cc(-c2cnn(C3CCNCC3)c2)cnc1N)c1c(Cl)ccc(F)c1Cl [Crizotinib] + CC1=C(C(=CC=C1)Cl)NC(=O)C2=CN=C(S2)NC3=CC(=NC(=N3)C)N4CCN(CC4)CCO [Dasatinib] (first compound max 10 µM, 7x7, partner max 2 µM)	0.0661	-0.0469	-0.0152	-0.0153	0.933	0.763	0.887	0.838	0.765	0.869	0.854	0.661	0.905	0.677	0.61	0.259	0.886	0.777	0.938	0.567
C[C@@H](Oc1cc(-c2cnn(C3CCNCC3)c2)cnc1N)c1c(Cl)ccc(F)c1Cl [Crizotinib] + Cn1cnc2c(F)c(Nc3ccc(Br)cc3Cl)c(C(=O)NOCCO)cc21 [Selumetinib] (first compound max 10 µM, 7x7, partner max 10 µM)	-0.0212	0.0373	-0.0311	-0.0309	0.498	0.739	0.543	0.631	0.749	0.319	0.902	0.28	0.975	0.564	0.761	0.411	0.764	0.963	0.864	0.48
O=C(c1cc(Cc2n[nH]c(=O)c3ccccc23)ccc1F)N1CCN(C(=O)C2CC2)CC1 [Olaparib] + CC1(C)CCC(CN2CCN(c3ccc(C(=O)NS(=O)(=O)c4ccc(NCC5CCOCC5)c([N+](=O)[O-])c4)c(Oc4cnc5[nH]ccc5c4)c3)CC2)=C(c2ccc(Cl)cc2)C1 [Venetoclax] (first compound max 10 µM, 7x7, partner max 1 µM)	-0.0105	-0.0231	-0.0432	0.163	0.114	0.301	0.12	0.137	0.347	0.0836	0.201	0.169	0.37	0.0638	0.0674	0.258	0.358	0.192	0.283	0.119
O=C(c1cc(Cc2n[nH]c(=O)c3ccccc23)ccc1F)N1CCN(C(=O)C2CC2)CC1 [Olaparib] + CN(CC[C@H](CSC1=CC=CC=C1)NC2=C(C=C(C=C2)S(=O)(=O)NC(=O)C3=CC=C(C=C3)N4CCC(CC4)[C@H](C5=CC=CC=C5C6=CC=C(C=C6)Cl)O)S(=O)(=O)C(F)(F)F)CCO [AZD4320] (first compound max 10 µM, 7x7, partner max 1 µM)	-0.017	-0.0224	-0.107	0.0835	0.22	0.378	0.266	0.175	0.573	0.11	0.164	0.598	0.994	0.16	0.17	0.315	0.463	0.21	0.211	0.149
O=C(c1cc(Cc2n[nH]c(=O)c3ccccc23)ccc1F)N1CCN(C(=O)C2CC2)CC1 [Olaparib] + COc1nnc2ccc(N3CCC(c4ccc(OCCN5CCN(C)C(=O)[C@H]5C)cc4)CC3)nn12 [AZD5153] (first compound max 10 µM, 7x7, partner max 1 µM)	-0.0258	-0.0337	-0.117	0.0378	0.603	0.698	0.196	0.393	0.372	0.27	0.409	0.397	0.96	0.69	0.522	0.3	0.642	0.429	0.611	0.412
